Results published in patent US9340590B2 (priority 2011, dated 2016).
Read-outs that look alike come from different tables or passages of the source. Positions of bridges follow the written chain, without caps; N, C: chain ends. Non-standard residues stand in square brackets, D forms with d. Residues, ends and D or L forms follow the SMILES beside them. 1Nal = N[C@@H](Cc1cccc2ccccc12)C(=O)O

What was measured:
Test in all cases: cell-based
hNav1.3 [1] = molecular target: T1, hNav1.3 (Homo sapiens, UniProt Q9NY46); type: cell-based; conditions: for IC50: Nav1.3 Use IC50
hNav1.7 [2] = molecular target: T2, hNav1.7 (Homo sapiens, UniProt Q15858); type: cell-based
hNav1.5 [3] = molecular target: T3, hNav1.5 (Homo sapiens, UniProt Q14524)
hNav1.7 [4] = molecular target: T2, hNav1.7
hNav1.5 [5] = molecular target: T3, hNav1.5; remark: listed apart in the source
hNav1.3 [6] = molecular target: T1, hNav1.3
[7] = IonWorks Quattro, clamped to −110 mV, depolarized to −10 mV, 5 min after compound, n=2, read-out: IWQ Use Nav1.7
[8] = IonWorks Quattro, clamped to −110 mV, depolarized to −10 mV, 5 min after compound, n=2, read-out: IWQ Use Nav1.5
[9] = IonWorks Quattro, clamped to −110 mV, depolarized to −10 mV, 5 min after compound, n=2, read-out: IWQ Use Nav1.3

T2 sequence (Q15858 whole entry, looked up): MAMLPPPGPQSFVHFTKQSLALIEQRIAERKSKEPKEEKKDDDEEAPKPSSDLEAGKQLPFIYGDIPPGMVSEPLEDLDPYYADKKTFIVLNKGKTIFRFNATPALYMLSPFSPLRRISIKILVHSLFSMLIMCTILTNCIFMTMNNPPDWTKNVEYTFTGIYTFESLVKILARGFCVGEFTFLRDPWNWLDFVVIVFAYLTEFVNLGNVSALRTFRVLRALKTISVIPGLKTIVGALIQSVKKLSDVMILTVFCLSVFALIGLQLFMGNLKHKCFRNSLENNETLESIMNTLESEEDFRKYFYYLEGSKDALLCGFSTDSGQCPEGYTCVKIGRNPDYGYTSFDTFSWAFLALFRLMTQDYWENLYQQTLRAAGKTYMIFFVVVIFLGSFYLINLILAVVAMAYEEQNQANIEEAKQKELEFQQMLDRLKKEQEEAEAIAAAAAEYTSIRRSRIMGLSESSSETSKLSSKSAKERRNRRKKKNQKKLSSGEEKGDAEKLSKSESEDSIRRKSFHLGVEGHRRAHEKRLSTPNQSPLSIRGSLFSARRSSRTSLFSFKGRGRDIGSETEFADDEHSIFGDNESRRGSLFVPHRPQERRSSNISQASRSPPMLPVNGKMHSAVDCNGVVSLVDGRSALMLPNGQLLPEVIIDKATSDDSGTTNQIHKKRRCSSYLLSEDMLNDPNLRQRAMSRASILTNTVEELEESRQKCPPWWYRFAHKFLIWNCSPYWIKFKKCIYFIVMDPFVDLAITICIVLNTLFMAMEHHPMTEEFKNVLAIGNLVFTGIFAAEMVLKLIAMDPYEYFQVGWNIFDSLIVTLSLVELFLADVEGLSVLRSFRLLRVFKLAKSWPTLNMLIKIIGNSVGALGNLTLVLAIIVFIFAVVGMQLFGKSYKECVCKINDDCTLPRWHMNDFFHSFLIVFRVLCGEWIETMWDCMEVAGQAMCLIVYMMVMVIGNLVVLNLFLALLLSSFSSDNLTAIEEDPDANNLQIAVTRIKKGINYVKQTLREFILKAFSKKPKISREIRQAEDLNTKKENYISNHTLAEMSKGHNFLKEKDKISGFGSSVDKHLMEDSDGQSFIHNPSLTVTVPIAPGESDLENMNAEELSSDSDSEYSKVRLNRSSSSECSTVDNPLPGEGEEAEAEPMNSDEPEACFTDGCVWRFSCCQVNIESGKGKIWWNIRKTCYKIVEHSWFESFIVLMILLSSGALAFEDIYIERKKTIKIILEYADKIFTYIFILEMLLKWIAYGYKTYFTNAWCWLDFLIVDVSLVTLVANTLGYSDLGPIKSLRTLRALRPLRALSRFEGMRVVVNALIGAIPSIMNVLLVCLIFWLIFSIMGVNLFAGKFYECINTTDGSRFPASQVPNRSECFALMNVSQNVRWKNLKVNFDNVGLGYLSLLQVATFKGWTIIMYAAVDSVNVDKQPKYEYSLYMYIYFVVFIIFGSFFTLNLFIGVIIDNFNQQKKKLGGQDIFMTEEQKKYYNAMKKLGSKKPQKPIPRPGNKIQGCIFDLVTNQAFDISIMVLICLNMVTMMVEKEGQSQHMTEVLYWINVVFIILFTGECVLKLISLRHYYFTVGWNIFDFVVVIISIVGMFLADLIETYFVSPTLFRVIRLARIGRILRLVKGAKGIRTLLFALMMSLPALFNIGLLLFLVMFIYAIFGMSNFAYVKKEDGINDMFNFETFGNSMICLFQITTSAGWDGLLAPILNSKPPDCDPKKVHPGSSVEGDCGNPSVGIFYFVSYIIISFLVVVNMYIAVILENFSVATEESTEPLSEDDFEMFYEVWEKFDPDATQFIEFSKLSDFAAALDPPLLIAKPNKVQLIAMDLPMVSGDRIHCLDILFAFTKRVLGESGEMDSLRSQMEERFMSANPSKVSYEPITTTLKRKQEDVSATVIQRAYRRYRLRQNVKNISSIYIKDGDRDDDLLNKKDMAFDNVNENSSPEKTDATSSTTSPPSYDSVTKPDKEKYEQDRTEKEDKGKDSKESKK
T3 sequence (Q14524 whole entry, looked up): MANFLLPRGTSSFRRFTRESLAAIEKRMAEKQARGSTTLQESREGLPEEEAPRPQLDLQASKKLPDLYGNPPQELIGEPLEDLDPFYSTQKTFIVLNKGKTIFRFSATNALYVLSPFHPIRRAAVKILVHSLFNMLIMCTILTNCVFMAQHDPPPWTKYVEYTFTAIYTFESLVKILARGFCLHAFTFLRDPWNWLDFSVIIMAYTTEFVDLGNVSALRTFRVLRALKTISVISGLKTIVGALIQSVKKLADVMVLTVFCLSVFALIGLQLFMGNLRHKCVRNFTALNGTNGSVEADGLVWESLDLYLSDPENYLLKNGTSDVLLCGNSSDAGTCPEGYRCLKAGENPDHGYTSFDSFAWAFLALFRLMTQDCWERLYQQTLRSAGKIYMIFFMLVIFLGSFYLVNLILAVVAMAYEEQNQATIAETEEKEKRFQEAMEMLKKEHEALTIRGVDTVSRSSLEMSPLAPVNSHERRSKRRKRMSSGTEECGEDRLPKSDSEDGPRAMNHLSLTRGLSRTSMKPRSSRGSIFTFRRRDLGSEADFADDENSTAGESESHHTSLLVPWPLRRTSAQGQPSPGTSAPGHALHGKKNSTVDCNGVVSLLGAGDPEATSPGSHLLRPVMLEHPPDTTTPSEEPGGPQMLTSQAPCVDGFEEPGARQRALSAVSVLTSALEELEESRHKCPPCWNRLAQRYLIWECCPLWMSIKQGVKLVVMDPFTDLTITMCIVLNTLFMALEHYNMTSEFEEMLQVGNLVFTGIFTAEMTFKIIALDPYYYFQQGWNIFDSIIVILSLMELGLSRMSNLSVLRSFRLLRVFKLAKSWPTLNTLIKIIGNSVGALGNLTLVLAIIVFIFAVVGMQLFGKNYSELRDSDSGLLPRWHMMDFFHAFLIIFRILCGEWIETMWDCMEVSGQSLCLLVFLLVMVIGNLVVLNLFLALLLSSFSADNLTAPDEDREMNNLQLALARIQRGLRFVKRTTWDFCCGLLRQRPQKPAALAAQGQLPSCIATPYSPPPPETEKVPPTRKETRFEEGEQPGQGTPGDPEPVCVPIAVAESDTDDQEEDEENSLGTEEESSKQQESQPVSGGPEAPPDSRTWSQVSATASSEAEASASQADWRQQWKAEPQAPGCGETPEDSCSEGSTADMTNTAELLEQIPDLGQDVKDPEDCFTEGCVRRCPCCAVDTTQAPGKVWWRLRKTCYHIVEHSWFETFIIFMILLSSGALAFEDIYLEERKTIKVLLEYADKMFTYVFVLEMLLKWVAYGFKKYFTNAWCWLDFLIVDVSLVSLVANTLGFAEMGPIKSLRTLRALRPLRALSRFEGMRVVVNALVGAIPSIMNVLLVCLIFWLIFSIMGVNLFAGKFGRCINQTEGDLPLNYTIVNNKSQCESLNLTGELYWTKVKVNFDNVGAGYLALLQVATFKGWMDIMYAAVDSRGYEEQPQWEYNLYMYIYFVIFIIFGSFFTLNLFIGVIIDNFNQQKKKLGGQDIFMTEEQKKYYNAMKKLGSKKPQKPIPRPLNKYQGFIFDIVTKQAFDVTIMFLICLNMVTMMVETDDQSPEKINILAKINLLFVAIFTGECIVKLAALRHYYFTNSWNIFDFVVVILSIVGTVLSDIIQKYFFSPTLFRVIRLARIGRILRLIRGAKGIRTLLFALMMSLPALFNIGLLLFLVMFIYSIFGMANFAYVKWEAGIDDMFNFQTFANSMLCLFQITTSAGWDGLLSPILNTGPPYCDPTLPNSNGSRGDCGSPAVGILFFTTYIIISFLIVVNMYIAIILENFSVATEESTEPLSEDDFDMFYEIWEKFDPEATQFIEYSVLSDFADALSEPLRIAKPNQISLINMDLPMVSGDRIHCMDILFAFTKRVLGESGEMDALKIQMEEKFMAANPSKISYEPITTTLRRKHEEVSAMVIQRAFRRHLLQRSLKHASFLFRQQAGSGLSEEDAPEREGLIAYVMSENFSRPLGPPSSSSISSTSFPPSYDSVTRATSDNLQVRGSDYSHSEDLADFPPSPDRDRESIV

Row | Structure (SMILES) | potency against NaV1.3, in words (hNav1.3 [1]) | IC50 (hNav1.3 [1]) | IC50 (hNav1.7 [2]; [7]) | IC50 (hNav1.5 [3]; read-out: Nav1.5 Use IC50) | IC50 (hNav1.7 [4]; Nav1.7 Use IC50) | IC50 (hNav1.5 [5]; [8]) | IC50 (hNav1.3 [6]; [9]) | IC50 (hNav1.7 [2]) | IC50 (hNav1.5 [3]) | IC50 (hNav1.3 [6]) | IC50 (hNav1.7 [4]; read-out: Nav1.7 Use IC50) | IC50 (hNav1.5 [5]; IWQ Use Nav1.5)
1 | CC[C@H](C)[C@@H]1NC(=O)[C@@H]2CSSC[C@@H]3NC(=O)[C@H](C(C)C)NC(=O)[C@H](CC(C)C)NC(=O)[C@H](CC(N)=O)NC(=O)[C@@H]4CCCN4C(=O)[C@H](CCCNC(=N)N)NC(=O)[C@H](CSSC[C@H](NC(=O)[C@@H](N)CC(=O)O)C(=O)N[C@@H](CC(C)C)C(=O)NCC(=O)N[C@@H](Cc4ccc(-c5ccccc5)cc4)C(=O)N[C@@H](CCSC)C(=O)N[C@@H](CCCNC(=N)N)C(=O)N[C@@H](CCCCN)C(=O)N2)NC(=O)[C@H](CSSC[C@@H](C(=O)N[C@@H](CCCCN)C(=O)N[C@@H](Cc2ccc(O)cc2)C(=O)N[C@H](C(=O)N[C@@H](Cc2ccccc2)C(N)=O)C(C)C)NC(=O)[C@H](Cc2c[nH]c4ccccc24)NC(=O)[C@H](CCCCN)NC(=O)[C@H](Cc2c[nH]cn2)NC(=O)[C@H]([C@@H](C)O)NC(=O)[C@H](CCCNC(=N)N)NC(=O)[C@H](CO)NC3=O)NC(=O)[C@H](CCCCN)NC(=O)[C@H](CC(=O)O)NC(=O)[C@H](CC(N)=O)NC(=O)[C@H](CC(=O)O)NC(=O)[C@@H]2CCCN2C1=O [SEQ ID NO: 242] | increased potency | 0.003 µM | 0.06 µM | 2.08 µM | 0.062 µM | 3.38 µM |  |  |  |  |  | 
2 | CC[C@H](C)[C@@H]1NC(=O)[C@@H]2CSSC[C@@H]3NC(=O)[C@H](C(C)C)NC(=O)[C@H](CC(C)C)NC(=O)[C@H](CC(N)=O)NC(=O)[C@@H]4CCCN4C(=O)[C@H](CCCNC(=N)N)NC(=O)[C@H](CSSC[C@H](NC(=O)[C@@H](N)CC(=O)O)C(=O)N[C@@H](CC(C)C)C(=O)NCC(=O)N[C@@H](Cc4ccccc4)C(=O)N[C@@H](Cc4ccccc4)C(=O)N[C@@H](CCCNC(=N)N)C(=O)N[C@@H](CCCCN)C(=O)N2)NC(=O)[C@H](CSSC[C@@H](C(=O)N[C@@H](CCCCN)C(=O)N[C@@H](Cc2ccc(O)cc2)C(=O)N[C@H](C(=O)N[C@@H](Cc2ccccc2)C(N)=O)C(C)C)NC(=O)[C@H](Cc2c[nH]c4ccccc24)NC(=O)[C@H](CCCCN)NC(=O)[C@H](Cc2cnc[nH]2)NC(=O)[C@H]([C@@H](C)O)NC(=O)[C@H](CCCNC(=N)N)NC(=O)[C@H](CO)NC3=O)NC(=O)[C@H](CCCCN)NC(=O)[C@H](CC(=O)O)NC(=O)[C@H](CC(N)=O)NC(=O)[C@H](CC(=O)O)NC(=O)[C@@H]2CCCN2C1=O [SEQ ID NO: 89] (H-DCLGFFRKCIPDNDKCCRPNLVCSRTHKWCKYVF-NH2; disulfide 2-17, 9-23, 16-30) |  | 0.016 µM |  |  | 0.015 µM | 9.21 µM | 0.03 µM | 0.05 µM | 3.16 µM |  |  | 
3 | CC[C@H](C)[C@@H]1NC(=O)[C@@H]2CSSC[C@@H]3NC(=O)[C@H](C(C)C)NC(=O)[C@H](CC(C)C)NC(=O)[C@H](CC(N)=O)NC(=O)[C@@H]4CCCN4C(=O)[C@H](CCCNC(=N)N)NC(=O)[C@H](CSSC[C@H](NC(=O)[C@@H](N)CC(=O)O)C(=O)N[C@@H](CC(C)C)C(=O)NCC(=O)N[C@@H](CC4CCCCC4)C(=O)N[C@@H](CCSC)C(=O)N[C@@H](CCCNC(=N)N)C(=O)N[C@@H](CCCCN)C(=O)N2)NC(=O)[C@H](CSSC[C@@H](C(=O)N[C@@H](CCCCN)C(=O)N[C@@H](Cc2ccc(O)cc2)C(=O)N[C@H](C(=O)N[C@@H](Cc2ccccc2)C(N)=O)C(C)C)NC(=O)[C@H](Cc2c[nH]c4ccccc24)NC(=O)[C@H](CCCCN)NC(=O)[C@H](Cc2cnc[nH]2)NC(=O)[C@H]([C@@H](C)O)NC(=O)[C@H](CCCNC(=N)N)NC(=O)[C@H](CO)NC3=O)NC(=O)[C@H](CCCCN)NC(=O)[C@H](CC(=O)O)NC(=O)[C@H](CC(N)=O)NC(=O)[C@H](CC(=O)O)NC(=O)[C@@H]2CCCN2C1=O [SEQ ID NO: 243] |  | 0.007 µM | 0.01 µM |  | 0.003 µM | 6.99 µM |  |  | 3.39 µM | 0.02 µM |  | 
4 | CCCC[C@@H]1NC(=O)[C@H](Cc2ccccc2)NC(=O)CNC(=O)[C@H](CC(C)C)NC(=O)[C@@H](NC(=O)[C@@H](N)CC(=O)O)CSSC[C@@H]2NC(=O)[C@@H]3CSSC[C@@H](C(=O)N[C@@H](CCCCN)C(=O)N[C@@H](Cc4ccc(O)cc4)C(=O)N[C@H](C(=O)N[C@@H](Cc4ccccc4)C(N)=O)C(C)C)NC(=O)[C@H](Cc4c[nH]c5ccccc45)NC(=O)[C@H](CCCCN)NC(=O)[C@H](Cc4c[nH]cn4)NC(=O)[C@H]([C@@H](C)O)NC(=O)[C@H](CCCNC(=N)N)NC(=O)[C@H](CO)NC(=O)[C@H](CSSC[C@H](NC(=O)[C@H](CCCCN)NC(=O)[C@H](CCCNC(=N)N)NC1=O)C(=O)N[C@@H]([C@@H](C)CC)C(=O)N1CCC[C@H]1C(=O)N[C@@H](CC(=O)O)C(=O)N[C@@H](CC(N)=O)C(=O)N[C@@H](CC(=O)O)C(=O)N[C@@H](CCCCN)C(=O)N3)NC(=O)[C@H](C(C)C)NC(=O)[C@H](CC(C)C)NC(=O)[C@H](CC(N)=O)NC(=O)[C@@H]1CCCN1C(=O)[C@H](CCCNC(=N)N)NC2=O [SEQ ID NO: 123] |  | 0.009 µM | 0.05 µM |  |  | 4.5 µM | 0.02 µM |  | 1.15 µM |  | 0.008 µM | 
5 | CC[C@H](C)[C@@H]1NC(=O)[C@@H]2CSSC[C@@H]3NC(=O)[C@H](C(C)C)NC(=O)[C@H](CC(C)C)NC(=O)[C@H](CC(N)=O)NC(=O)[C@@H]4CCCN4C(=O)[C@H](CCCNC(=N)N)NC(=O)[C@H](CSSC[C@H](NC(=O)[C@@H](N)Cc4cccc5ccccc45)C(=O)N[C@@H](CC(C)C)C(=O)NCC(=O)N[C@@H](Cc4ccccc4)C(=O)N[C@@H](CCSC)C(=O)N[C@@H](CCCNC(=N)N)C(=O)N[C@@H](CCCCN)C(=O)N2)NC(=O)[C@H](CSSC[C@@H](C(=O)N[C@@H](CCCCN)C(=O)N[C@@H](Cc2ccc(O)cc2)C(=O)N[C@H](C(=O)N[C@@H](Cc2ccccc2)C(N)=O)C(C)C)NC(=O)[C@H](Cc2c[nH]c4ccccc24)NC(=O)[C@H](CCCCN)NC(=O)[C@H](Cc2c[nH]cn2)NC(=O)[C@H]([C@@H](C)O)NC(=O)[C@H](CCCNC(=N)N)NC(=O)[C@H](CO)NC3=O)NC(=O)[C@H](CCCCN)NC(=O)[C@H](CC(=O)O)NC(=O)[C@H](CC(N)=O)NC(=O)[C@H](CC(=O)O)NC(=O)[C@@H]2CCCN2C1=O [SEQ ID NO: 77] (H-[1Nal]CLGFMRKCIPDNDKCCRPNLVCSRTHKWCKYVF-NH2; disulfide 2-17, 9-23, 16-30) |  | 0.066 µM |  |  | 0.023 µM | 13.4 µM | 0.14 µM | 0.11 µM | 7.6 µM |  |  | 
6 | CC[C@H](C)[C@@H]1NC(=O)[C@@H]2CSSC[C@@H]3NC(=O)[C@H](C(C)C)NC(=O)[C@H](CC(C)C)NC(=O)[C@H](CC(N)=O)NC(=O)[C@@H]4CCCN4C(=O)[C@H](CCCNC(=N)N)NC(=O)[C@H](CSSC[C@H](NC(=O)[C@@H](N)CC(=O)O)C(=O)N[C@@H](CC(C)C)C(=O)NCC(=O)N[C@@H](Cc4ccccc4)C(=O)N[C@@H](CC4CCCCC4)C(=O)N[C@@H](CCCNC(=N)N)C(=O)N[C@@H](CCCCN)C(=O)N2)NC(=O)[C@H](CSSC[C@@H](C(=O)N[C@@H](CCCCN)C(=O)N[C@@H](Cc2ccc(O)cc2)C(=O)N[C@H](C(=O)N[C@@H](Cc2ccccc2)C(N)=O)C(C)C)NC(=O)[C@H](Cc2c[nH]c4ccccc24)NC(=O)[C@H](CCCCN)NC(=O)[C@H](Cc2cnc[nH]2)NC(=O)[C@H]([C@@H](C)O)NC(=O)[C@H](CCCNC(=N)N)NC(=O)[C@H](CO)NC3=O)NC(=O)[C@H](CCCCN)NC(=O)[C@H](CC(=O)O)NC(=O)[C@H](CC(N)=O)NC(=O)[C@H](CC(=O)O)NC(=O)[C@@H]2CCCN2C1=O [SEQ ID NO: 245] |  | 0.002 µM | 0.02 µM |  | 0.003 µM | 2.37 µM |  |  | 2.68 µM |  |  | 
7 | CC[C@H](C)[C@@H]1NC(=O)[C@@H]2CSSC[C@@H]3NC(=O)[C@H](C(C)C)NC(=O)[C@H](CC(C)C)NC(=O)[C@H](CC(N)=O)NC(=O)[C@@H]4CCCN4C(=O)[C@H](CCCNC(=N)N)NC(=O)[C@H](CSSC[C@H](NC(=O)[C@@H](N)CC(=O)O)C(=O)N[C@@H](CC(C)C)C(=O)NCC(=O)N[C@@H](Cc4ccccc4)C(=O)N[C@@H](Cc4cccc5ccccc45)C(=O)N[C@@H](CCCNC(=N)N)C(=O)N[C@@H](CCCCN)C(=O)N2)NC(=O)[C@H](CSSC[C@@H](C(=O)N[C@@H](CCCCN)C(=O)N[C@@H](Cc2ccc(O)cc2)C(=O)N[C@H](C(=O)N[C@@H](Cc2ccccc2)C(N)=O)C(C)C)NC(=O)[C@H](Cc2c[nH]c4ccccc24)NC(=O)[C@H](CCCCN)NC(=O)[C@H](Cc2c[nH]cn2)NC(=O)[C@H]([C@@H](C)O)NC(=O)[C@H](CCCNC(=N)N)NC(=O)[C@H](CO)NC3=O)NC(=O)[C@H](CCCCN)NC(=O)[C@H](CC(=O)O)NC(=O)[C@H](CC(N)=O)NC(=O)[C@H](CC(=O)O)NC(=O)[C@@H]2CCCN2C1=O [SEQ ID NO: 161] |  | 0.004 µM | 0.007 µM |  | 0.003 µM |  | 0.006 µM |  | 0.358 µM |  |  | 2.34 µM
